Where two headings read alike, the source gives them in different places.
Legend:
[1] = Single ascending dose (SAD) oral pharmacokinetics of anle138b in healthy subjects, plasma; type: in vivo, human; conditions: for AUC(0-t) / Cmax: human, plasma, fasted, geometric mean (CV%); for AUC(0-t): read-out: AUC(0-24)
Experimental: This was a single-centre, double-blind, randomised, placebo-controlled single ascending dose (SAD) and multiple ascending dose (MAD) study of anle138b in doses of up to 300 mg per day in healthy subjects. In addition, the effect of food (FES) on the PK of anle138b in healthy subjects was examined using single doses of 150 mg. Participants were recruited from Quotient Sciences (Nottingham, UK) volunteer database.
As a safety precaution, sentinel dosing was performed for all SAD and MAD cohorts. In SAD, subjects received a single dose of anle138b or placebo after fasting from all food and drink (except water) for a minimum of 8 h prior to dosing. The dosing in the four SAD-cohorts were 50 mg, 100 mg, 200 mg and 300 mg of free anle138b equivalent, respectively. In the MAD part, participants received anle138b or placebo once daily (QD) for 7 days after fasting from all food and drink (except water) for a minimum of 8 h prior to dosing. The dosing in the three MAD-cohorts was 100 mg, 200 mg and 300 mg of free anle138b equivalent, respectively. Post dosing mouth and hand checks were conducted to ensure the capsules were swallowed. In-study decisions regarding continuation and dose escalation were made by the safety advisory committee (SAC) comprising the principal investigator, the sponsor's medical monitor and a PK expert. For dose escalation to proceed, data needed to be available from a minimum of 6 subjects per cohort with completed per protocol safety and PK assessments up to 48 h after dosing to ensure at least 4 subjects had received active IMP. The decision to proceed to the next higher dose level was based on safety, tolerability and available PK data to 48 h post-dose. The following data were required: Adverse events, vital signs, safety laboratory, ECG, physical examinations, plasma concentrations of anle138b with interim PK parameter estimations (Tmax, Cmax, AUC(0-24), AUC(0-tau), AUC(0-last) and T½, where applicable). Data were provided to the SAC in accordance with Quotient Sciences’ standard operating procedure (SOP) on interim dose decision-making and dose escalation.
Secondary outcome measures were the oral PK of single (SAD) and multiple (MAD) ascending doses of anle138b in the fasted state as well as the effect of co-administration with food on the PK of anle138b. To this end PK blood samples were taken at day 1 (and for MAD day 7) pre-dose and at 0·5, 1, 1·5, 2, 3, 4, 6, 8, 10, 12, 16 and 20 h post-dose, at days 2 to 6 pre-dose only (MAD) and 24, 30, 36 and 48 h post final dose. Analysis of anle138b in plasma was done at Aptuit, an Evotec company, in Verona, Italy. Time point of last quantifiable data was seen to increase with an increase in dose as follows: SAD: from the 50mg dose (subjects ranged between 8-24h) to the 300mg dose (subjects ranged between 36-48h). MAD: from the 100mg dose (subjects ranged between 8-36h) to the 300mg dose (subjects ranged between 20-48h). In FES, subjects ranged between 24-48h.
The study was exploratory and no formal sample size calculation was made. Based on experience from previous studies of similar design, eight subjects per cohort were enrolled for parts 1 (SAD) and 2 (MAD) and a total of twelve subjects for part 3 (FES). Populations and analysis sets were determined for safety and PK data after database lock using the criteria defined in the reporting and analysis plan. The safety population and safety analysis set for SAD and MAD were defined after database lock but prior to study unblinding. Statistical analysis and production of summary tables, figures and listings for all safety data (AEs, vital signs, ECGs and safety laboratory assessments) including changes from baseline as required in this study were performed using the statistical package SAS (v9·4). Additional statistics was provided for PK-related data including coefficient of variation (CV%), geometric mean, geometric CV%, and the number n of subjects that were included in the natural logarithmic transformation). […]

[2] = animal studies; cited from earlier work
[3] = SAD Cohort B 100 mg single oral dose
[4] = SAD Cohort C 200 mg single oral dose
[5] = SAD Cohort D 300 mg single oral dose

Q: With `Brc1cccc(-c2cc(-c3ccc4c(c3)OCO4)n[nH]2)c1` [anle138b, 3-(1,3-benzodioxol-5-yl)-5-(3-bromophenyl)-1H-pyrazole] as the molecule, how does the “Time point of last quantifiable data (range of subjects)” value ([1]; SAD 50mg dose) read?
A: 8 to 24 h

Q: And the “Time point of last quantifiable data (range of subjects)” value ([1]; SAD 300mg dose)?
A: 36 to 48 h

Q: And the AUC(0-t) ([1]; SAD Cohort A 50 mg single oral dose)?
A: 113 ng·h/mL

Q: And the Cmax [1, 3]?
A: 156 ng/mL

Q: And the AUC(0-t) [1, 3]?
A: 366 ng·h/mL

Q: And the Cmax [1, 4]?
A: 458 ng/mL

Q: What about the AUC(0-t) [1, 4] of the same molecule?
A: 1090 ng·h/mL

Q: What about the Cmax [1, 5] of the same molecule?
A: 704 ng/mL

Q: And the AUC(0-t) [1, 5]?
A: 1650 ng·h/mL

Q: What about the “Achievement of potential therapeutic exposure (based upon nonclinical in vivo models)” value ([1]; single 100 mg dose) of the same molecule?
A: already achieved after single 100 mg dose

Q: What about the “Levels of anle138b in the brain relative to plasma” value [2] of the same molecule?
A: 5 fold

Q: And the “Oral bioavailability (in words)” value [2]?
A: high oral bioavailability
